Reference: patent publication US8420675B2, “Aminotetrahydroindazoloacetic acids” (Hoffmann-La Roche Inc., priority 2008, dated 2013)

The compounds below were run against T1, human CRTH2 (Homo sapiens, UniProt Q9Y5Y4) (assay: Human CRTH2 Receptor Binding Assay (whole cell, [3H]ramatroban competition)). Conditions: CHO-K1 cells expressing human CRTH2 and G-alpha16; 20 nM [3H]ramatroban; 1 hour, room temperature.
T1 construct: expressed in transfected cells
T1 sequence (Q9Y5Y4 1-395): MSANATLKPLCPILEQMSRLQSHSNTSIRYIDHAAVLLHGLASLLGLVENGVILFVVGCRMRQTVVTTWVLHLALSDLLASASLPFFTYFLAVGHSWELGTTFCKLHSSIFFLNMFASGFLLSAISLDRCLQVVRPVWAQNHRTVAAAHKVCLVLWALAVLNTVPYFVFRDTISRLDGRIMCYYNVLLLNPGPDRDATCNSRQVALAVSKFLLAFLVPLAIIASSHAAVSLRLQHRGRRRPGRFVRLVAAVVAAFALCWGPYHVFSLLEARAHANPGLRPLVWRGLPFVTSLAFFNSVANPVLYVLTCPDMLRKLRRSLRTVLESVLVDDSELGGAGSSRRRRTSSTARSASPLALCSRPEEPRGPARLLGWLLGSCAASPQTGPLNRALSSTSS
From the text: A whole cell receptor binding assay using [^3H]ramatroban as the competing radioactive ligand was employed to evaluate the compound binding activity to human CRTH2. The radioactive ligand [^3H]ramatroban was synthesized according to Sugimoto et. al. (Eur. J. Pharmacol. 524, 30-37, 2005) to a specific activity of 42 Ci/mmol.
A cell line stably expressing human CRTH2 was established by transfecting CHO-K1 cells with two mammalian expression vectors that harbored human CRTH2 and G-alpha16 cDNAs, respectively, using FuGene® 6 transfection reagent (from Roche). Stable clones expressing CRTH2 were selected by staining each clone with BM16 (BD Pharmingen™ from BD Biosciences, a division of Becton, Dickinson and Company), which is a rat monoclonal antibody to human CRTH2. The cells were maintained as monolayer cultures in Ham's F-12 medium containing 10% fetal bovine serum, 100 units/mL penicillin, 100 μg/mL streptomycin, 2 mM glutamine, 0.5 mg/mL G418 (geneticin) for CRTH2, and 0.2 mg/mL hygromycin-B (for G-alpha 16). For whole cell receptor binding assay, the monolayer cells were rinsed once with PBS (phosphate buffered saline), dissociated using ethylenediaminetetraacetate (Versene™ EDTA Lonza Inc.), and suspended in PBS containing 10 mM MgCl2 and 0.06% BSA (bovine serum albumin) at 1.5×10^6 cells/mL.
The binding reactions (0.2 mL) were performed in 96-well plates at room temperature in PBS containing 1.5×10^5 cells, 10 mM MgCl2, 0.06% BSA, 20 nM [^3H]ramatroban, and test compound at various concentrations. After 1 hour of binding reactions, the cells were harvested on GF™/B filter microplates (microtiter plates with embedded glass fiber from PerkinElmer, Inc.) and washed 5 times with PBS using a Filtermate™ Harvester (a cell harvester that harvests and washes cells from microplates from PerkinElmer, Inc.). The radioactivities bound to the cells were determined using a microplate scintillation counter (TopCount® NXT, from PerkinElmer, Inc.) after adding 50 μL of Microscint™ 20 scintillation fluid (from PerkinElmer, Inc.) to each well of the filter plates. The radioactivity from non-specific binding was determined by replacing compound with 10 μM of 15(R)-15-methyl PGD2 (from Cayman Chemical Company) in the reaction mixtures. The radioactivity bound to the cells in the absence of compound (total binding) was determined by replacing compound with 0.25% of DMSO (dimethyl sulfoxide) in the reaction mixture. Specific binding data were obtained by subtracting the radioactivity of non-specific binding from each binding data.
The IC50 value is defined as the concentration of the tested compound that is required for 50% inhibition of total specific binding. In order to calculate the IC50 value, the percent inhibition data were determined for 7 concentrations for each compound. The percent inhibition for a compound at each concentration was calculated according to the following formula, [1-(specific binding in the presence of compound)/(total specific binding)]x100. The IC50 value was then obtained by fitting the percent inhibition data to a sigmoidal dose-response (4 parameter logistic) model in the XLfit® software Excel add-in program [from ID Business Solutions Ltd., model 205, where F(x)=(A+(B−A)/(1+((C/x)^D)))].

| IC50 [nM] | SMILES |
| --- | --- |
| 4 | CN([C@@H]1CCCc2c1cnn2CC(=O)O)S(=O)(=O)c1cnc(Oc2ccc(Cl)cc2)c(Br)c1 [Example 6-1a, ((R)-4-{[5-Bromo-6-(4-chloro-phenoxy)-pyridine-3-sulfonyl]-methyl-amino}-4,5,6,7-tetrahydro-indazol-1-yl)-acetic acid] |
| 267 | O=C(O)Cn1ncc2c1CCCC2NS(=O)(=O)c1ccc(-c2cccc(O)c2)cc1 (stereo not drawn) [Example 10-19a, [4-(3′-Hydroxy-biphenyl-4-sulfonylamino)-4,5,6,7-tetrahydro-indazol-1-yl]-acetic acid] |
| 158 | O=C(O)Cn1ncc2c1CCCC2NS(=O)(=O)c1ccc(Oc2ccc(F)cc2)nc1 (stereo not drawn) [Example 4-1a, {4-[6-(4-Fluoro-phenoxy)-pyridine-3-sulfonylamino]-4,5,6,7-tetrahydro-indazol-1-yl}-acetic acid] |
| 6.9 | O=C(O)Cn1ncc2c1CCC[C@H]2NS(=O)(=O)c1ccc(Oc2ccccc2Cl)cc1Cl [Example 5-5a, {(R)-4-[2-Chloro-4-(2-chloro-phenoxy)-benzenesulfonylamino]-4,5,6,7-tetrahydro-indazol-1-yl}-acetic acid] |
| 6.8 | COc1ccc(Oc2ccc(S(=O)(=O)N(C)[C@@H]3CCCc4c3cnn4CC(=O)O)cc2Cl)cc1 [Example 9-31a, ((R)-4-{[3-Chloro-4-(4-methoxy-phenoxy)-benzenesulfonyl]-methyl-amino}-4,5,6,7-tetrahydro-indazol-1-yl)-acetic acid] |
| 300 | O=C(O)Cn1ncc2c1CCCC2NS(=O)(=O)c1ccc(-c2ccc(F)cc2)cc1 (stereo not drawn) [Example 10-7a, [4-(4′-Fluoro-biphenyl-4-sulfonylamino)-4,5,6,7-tetrahydro-indazol-1-yl]-acetic acid] |
| 23.1 | CN([C@@H]1CCCc2c1cnn2CC(=O)O)S(=O)(=O)c1ccc(Oc2ccc(C(N)=O)cc2)c(Cl)c1 [Example 9-36a, ((R)-4-{[4-(4-Carbamoyl-phenoxy)-3-chloro-benzenesulfonyl]-methyl-amino}-4,5,6,7-tetrahydro-indazol-1-yl)-acetic acid] |
| 80.7 | CN([C@@H]1CCCc2c1cnn2CCC(=O)O)S(=O)(=O)c1ccc(-c2cccc(C(F)(F)F)c2)cc1 [Example 11-2a, 3-{(R)-4-[Methyl-(3′-trifluoromethyl-biphenyl-4-sulfonyl)-amino]-4,5,6,7-tetrahydro-indazol-1-yl}-propionic acid] |
| 238 | O=C(O)Cn1ncc2c1CCCC2NS(=O)(=O)c1ccc(-c2cccc([N+](=O)[O-])c2)cc1 (stereo not drawn) [Example 10-23a, [4-(3′-Nitro-biphenyl-4-sulfonylamino)-4,5,6,7-tetrahydro-indazol-1-yl]-acetic acid] |
| 27.7 | O=C(O)Cn1ncc2c1CCC[C@H]2NS(=O)(=O)c1ccc(Oc2ccccc2Cl)cc1 [Example 1-1a, {(R)-4-[4-(2-Chloro-phenoxy)-benzenesulfonylamino]-4,5,6,7-tetrahydro-indazol-1-yl}-acetic acid] |
| 151 | CN([C@@H]1CCCc2c1cnn2CC(=O)O)S(=O)(=O)c1cc(F)c(Oc2ccc(F)cc2)cc1Cl [Example 9-29a, ((R)-4-{[2-Chloro-5-fluoro-4-(4-fluoro-phenoxy)-benzenesulfonyl]-methyl-amino}-4,5,6,7-tetrahydro-indazol-1-yl)-acetic acid] |
| 393 | O=C(O)Cn1ncc2c1CCCC2NS(=O)(=O)c1cnc(Oc2ccc(C(F)(F)F)cc2)c(Br)c1 (stereo not drawn) [Example 2-7a, {4-[5-Bromo-6-(4-trifluoromethyl-phenoxy)-pyridine-3-sulfonylamino]-4,5,6,7-tetrahydro-indazol-1-yl}-acetic acid] |
| 7.2 | CN([C@@H]1CCCc2c1cnn2CC(=O)O)S(=O)(=O)c1ccc(Oc2ccc(Cl)cc2F)c(Cl)c1 [Example 9-11a, ((R)-4-{[3-Chloro-4-(4-chloro-2-fluoro-phenoxy)-benzenesulfonyl]-methyl-amino}-4,5,6,7-tetrahydro-indazol-1-yl)-acetic acid] |
| 97.2 | CN([C@@H]1CCCc2c1cnn2CC(=O)O)S(=O)(=O)c1ccc(Oc2ccccc2Cl)cc1Cl [Example 9-10a, ((R)-4-{[2-Chloro-4-(2-chloro-phenoxy)-benzenesulfonyl]-methyl-amino}-4,5,6,7-tetrahydro-indazol-1-yl)-acetic acid] |
| 18.2 | O=C(O)CCn1ncc2c1CCC[C@H]2NS(=O)(=O)c1cnc(Oc2ccccc2Cl)c(Br)c1 [Example 2-11a, 3-{(R)-4-[5-Bromo-6-(2-chloro-phenoxy)-pyridine-3-sulfonylamino]-4,5,6,7-tetrahydro-indazol-1-yl}-propionic acid] |
| 13.2 | CN([C@@H]1CCCc2c1cnn2CC(=O)O)S(=O)(=O)c1ccc(Oc2ccc(Cl)c(F)c2)c(Cl)c1 [Example 9-21a, ((R)-4-{[3-Chloro-4-(4-chloro-3-fluoro-phenoxy)-benzenesulfonyl]-methyl-amino}-4,5,6,7-tetrahydro-indazol-1-yl)-acetic acid] |
| 49.1 | CC(=O)Nc1ccc(Oc2ccc(S(=O)(=O)N(C)[C@@H]3CCCc4c3cnn4CC(=O)O)cc2Cl)cc1 [Example 9-27a, ((R)-4-{[4-(4-Acetylamino-phenoxy)-3-chloro-benzenesulfonyl]-methyl-amino}-4,5,6,7-tetrahydro-indazol-1-yl)-acetic acid] |
| 7.9 | CN([C@@H]1CCCc2c1cnn2CC(=O)O)S(=O)(=O)c1ccc(Oc2ccc(F)cc2)c(Br)c1 [Example 9-40a, ((R)-4-{[3-Bromo-4-(4-fluoro-phenoxy)-benzenesulfonyl]-methyl-amino}-4,5,6,7-tetrahydro-indazol-1-yl)-acetic acid] |
| 4.6 | CN([C@@H]1CCCc2c1cnn2CC(=O)O)S(=O)(=O)c1ccc(Oc2ccc(C#N)cc2)c(Cl)c1 [Example 9-34a, ((R)-4-{[3-Chloro-4-(4-cyano-phenoxy)-benzenesulfonyl]-methyl-amino}-4,5,6,7-tetrahydro-indazol-1-yl)-acetic acid] |
| 7.1 | CN([C@@H]1CCCc2c1cnn2CC(=O)O)S(=O)(=O)c1cnc(Oc2ccc(Cl)cc2F)c(Br)c1 [Example 6-9a, ((R)-4-{[5-Bromo-6-(4-chloro-2-fluoro-phenoxy)-pyridine-3-sulfonyl]-methyl-amino}-4,5,6,7-tetrahydro-indazol-1-yl)-acetic acid] |
| 130 | CN([C@@H]1CCCc2c1cnn2CC(=O)O)S(=O)(=O)c1cc(-c2ccc(F)cc2)cc(C(F)(F)F)c1 [Example 12-1a, {(R)-4-[(4′-Fluoro-5-trifluoromethyl-biphenyl-3-sulfonyl)-methyl-amino]-4,5,6,7-tetrahydro-indazol-1-yl}-acetic acid] |
| 5.6 | O=C(O)CCn1ncc2c1CCCC2NS(=O)(=O)c1ccc(-c2ccccc2)cc1 (single isomer, unassigned) [Example 10-30a, 3-[4-(biphenyl-4-sulfonylamino)-4,5,6,7-tetrahydro-indazol-1-yl]-propionic acid] |
| 31.1 | O=C(O)Cn1ncc2c1CCCC2NS(=O)(=O)c1cnc(Oc2ccc(F)cc2)c(Br)c1 (stereo not drawn) [Example 2-2a, {4-[5-Bromo-6-(4-fluoro-phenoxy)-pyridine-3-sulfonylamino]-4,5,6,7-tetrahydro-indazol-1-yl}-acetic acid] |
| 101 | CS(=O)(=O)c1ccc(Oc2ncc(S(=O)(=O)NC3CCCc4c3cnn4CC(=O)O)cc2Br)cc1 (stereo not drawn) [Example 2-5a, {4-[5-Bromo-6-(4-methanesulfonyl-phenoxy)-pyridine-3-sulfonylamino]-4,5,6,7-tetrahydro-indazol-1-yl}-acetic acid] |
